# Laboratory results taken from US7320879B2, “Method of determining site-specificity and kit therefor” (Biacore AB, priority 2002, dated 2008).
# What was measured:
# [1] = system: protein kinase (C-terminal His-tag); experiment: SPR binding profiles of binders against captured protein kinase, single concentration; conditions: 10 μM ATP; FIG. 8
# Source text: A BIACORE® S51 instrument (Biacore AB, Uppsala, Sweden) was used. This instrument has two Y-type flow cells which allow a dual flow of fluids over a sensor chip surface, so-called hydrodynamic addressing, as described in, for example, EP-B1-1021703 (the disclosure of which is incorporated by reference herein). The instrument uses three parallel detection spots on the sensor chip. As sensor chip was used Series S Sensor Chip CM5 (Biacore AB, Uppsala, Sweden) which has a gold-coated surface with a covalently linked carboxymethyl-modified dextran polymer hydrogel. The output from the instrument is a “sensorgram” which is a plot of detector response (measured in “resonance units”, RU) as a function of time. An increase of 1000 RU corresponds to an increase of mass on the sensor surface of approximately 1 ng/mm^2.
# 100 μg/ml of Penta-His™ antibody, BSA-free (Qiagen, Venlo, Netherlands) in 0.15 M NaCl was diluted to 30 μg/ml in 10 mM sodium acetate buffer pH 5.0 and immobilized on a Series S Sensor Chip CM5 by amine coupling according to the manufacturer's instructions. The contact time was 10 min, the flow rate was 10 μl/min, and 10 mM PBS was used as running buffer. A little less than 12000 RU of antibody were immobilized. […]
# [2] = biological target: T1, HSA (Homo sapiens, UniProt P02768); experiment: SPR (BIACORE S51) competition assay for HSA-binding site specificity, dissociation-phase response of mixtures; conditions: for effect of additional reference compounds on dissociation response of S1 on HSA: S1 constant 0.1 μM, reference 0-50 μM, d2 report point, FIG. 6
# T1 construct: purchased Sigma A-4327
# T1 sequence (P02768 25-609): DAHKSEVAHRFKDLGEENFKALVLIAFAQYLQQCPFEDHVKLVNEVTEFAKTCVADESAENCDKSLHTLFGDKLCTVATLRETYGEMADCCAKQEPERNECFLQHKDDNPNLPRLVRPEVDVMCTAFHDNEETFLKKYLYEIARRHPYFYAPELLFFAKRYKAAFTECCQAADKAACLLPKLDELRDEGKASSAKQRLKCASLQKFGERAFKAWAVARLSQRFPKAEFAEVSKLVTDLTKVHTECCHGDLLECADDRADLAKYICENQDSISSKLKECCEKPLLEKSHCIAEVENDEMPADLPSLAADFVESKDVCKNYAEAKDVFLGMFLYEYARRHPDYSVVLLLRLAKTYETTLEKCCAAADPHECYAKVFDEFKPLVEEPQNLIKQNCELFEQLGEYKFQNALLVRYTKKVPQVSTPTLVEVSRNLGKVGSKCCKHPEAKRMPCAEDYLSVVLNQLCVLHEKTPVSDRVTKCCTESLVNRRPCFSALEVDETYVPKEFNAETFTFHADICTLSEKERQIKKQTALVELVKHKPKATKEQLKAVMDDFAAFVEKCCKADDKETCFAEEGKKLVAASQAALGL
# [3] = biological target: T1, HSA; conditions: known site specificity of reference compounds (crystallography studies); cited from earlier work
SMILES,association/dissociation profile on the protein kinase [1],effect of the reference compound on binding/dissociation phase of S1 on HSA [2],known HSA-binding site [3],effect of additional reference compounds on dissociation response of S1 on HSA [2]
"Nc1ncnc2c1ncn2[C@@H]1O[C@H](COP(=O)(O)OP(=O)(O)OP(=O)(O)O)[C@@H](O)[C@H]1O [ATP, adenosine triphosphate]",very rapid binding and dissociation profile,–,–,–
C[C@H]1O[C@@H](O[C@H]2[C@@H](O)C[C@H](O[C@H]3[C@@H](O)C[C@H](O[C@H]4CC[C@@]5(C)[C@H](CC[C@@H]6[C@@H]5CC[C@]5(C)[C@@H](C7=CC(=O)OC7)CC[C@]65O)C4)O[C@@H]3C)O[C@@H]2C)C[C@H](O)[C@@H]1O [digitoxin],–,does not seem to affect the dissociation phase much,–,–
O=C1NC(=O)C(c2ccccc2)(c2ccccc2)N1 [phenyloin],–,–,site II,follow the behaviour of warfarin and naproxen respectively
COc1cc(NS(=O)(=O)c2ccc(N)cc2)nc(OC)n1 [sulfadimethoxine],–,–,site I,deviates from the behaviour of warfarin
